The values that follow come from patent US11001590B2, “Pyrazolopyrimidine derivatives” (BAYER ANIMAL HEALTH GMBH, priority 2016, dated 2021).

Broadly, the EC50 is the concentration that produces a half-maximal response. Usually chromatographic logP stands for a lipophilicity value derived from retention on a column. Lower therefore signals lower lipophilicity.

Bounds are passed on as bounds.

C. elegans Slo-1a, sequence (Q95V25 whole entry): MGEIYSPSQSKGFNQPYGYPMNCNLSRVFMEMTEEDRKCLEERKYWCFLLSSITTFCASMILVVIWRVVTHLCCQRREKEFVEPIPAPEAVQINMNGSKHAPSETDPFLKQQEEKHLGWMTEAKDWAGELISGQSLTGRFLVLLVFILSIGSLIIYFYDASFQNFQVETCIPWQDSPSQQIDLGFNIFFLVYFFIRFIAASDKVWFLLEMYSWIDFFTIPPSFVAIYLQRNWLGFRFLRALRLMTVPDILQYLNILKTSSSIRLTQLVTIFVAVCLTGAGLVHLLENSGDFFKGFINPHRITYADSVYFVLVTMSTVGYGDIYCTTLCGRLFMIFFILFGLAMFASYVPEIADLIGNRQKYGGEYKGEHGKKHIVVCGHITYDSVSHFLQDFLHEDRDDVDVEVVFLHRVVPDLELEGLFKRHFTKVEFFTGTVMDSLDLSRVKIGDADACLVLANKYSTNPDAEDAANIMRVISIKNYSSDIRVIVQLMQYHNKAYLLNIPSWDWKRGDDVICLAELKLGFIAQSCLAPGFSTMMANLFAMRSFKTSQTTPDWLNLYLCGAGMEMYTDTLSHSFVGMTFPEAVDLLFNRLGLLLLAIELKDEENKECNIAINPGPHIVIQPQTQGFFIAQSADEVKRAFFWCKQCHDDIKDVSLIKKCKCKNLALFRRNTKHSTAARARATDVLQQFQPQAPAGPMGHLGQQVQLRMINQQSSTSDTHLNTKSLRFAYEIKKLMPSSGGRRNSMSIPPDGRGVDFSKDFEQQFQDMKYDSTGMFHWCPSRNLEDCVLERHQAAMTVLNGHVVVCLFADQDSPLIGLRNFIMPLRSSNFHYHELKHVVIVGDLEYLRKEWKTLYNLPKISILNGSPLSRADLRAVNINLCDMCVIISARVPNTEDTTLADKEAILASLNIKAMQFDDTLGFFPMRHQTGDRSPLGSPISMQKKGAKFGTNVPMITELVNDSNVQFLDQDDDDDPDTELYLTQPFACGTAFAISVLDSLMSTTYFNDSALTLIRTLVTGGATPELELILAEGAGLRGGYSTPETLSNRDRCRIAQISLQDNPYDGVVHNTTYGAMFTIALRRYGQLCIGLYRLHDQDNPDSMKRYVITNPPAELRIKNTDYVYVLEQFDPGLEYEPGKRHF

For the first series, the system named is Dirofilaria immitis microfilariae. In words: In vitro assay 3: Dirofilaria immitis microfilariae (DIROIM L1), motility. As to conditions: 72 h, reduction of motility vs negative control, 72 h incubation.
For `Cc1nn2c(C3CC3)c(C(=O)N[C@H]3CCc4ccccc43)cnc2c1-c1cc(Cl)cc(C(F)(F)F)c1` [Example 425], the concentration for a half-maximal effect (EC50) was less than 10 µg/mL.

In turn, `Cc1nn2c(C(C)C)c(C(=O)N[C@H]3CCCc4ccccc43)cnc2c1-c1ccc(Cl)cc1Cl` [Example 182] returned an EC50 of less than 1 µg/mL.

With `Cc1nn2c(C(C)C)c(C(=O)N[C@H]3CCc4ccccc43)cnc2c1-c1cnn(C(C)C)c1` [Example 398], the EC50 is less than 1 µg/mL.

The compound `Cc1nn2c(C(C)C)c(C(=O)N[C@H]3CCCc4ccccc43)cnc2c1-c1cncc(Cl)c1` [Example 362] yielded an EC50 of less than 10 µg/mL.

Regarding `CC(=O)Nc1cc(-c2c(C)nn3c(C4CC4)c(C(=O)N[C@H]4CCOc5ccccc54)cnc23)ccn1` [Example 528], the EC50 is less than 10 µg/mL.

`Cc1nn2c(C(C)C)c(C(=O)N[C@H]3CCOc4ccccc43)cnc2c1-c1ccc2c(c1)OCO2` [Example 239] showed a concentration giving a half-maximal response (EC50) of less than 10 µg/mL.

As for `Cc1nn2c(C(C)C)c(C(=O)N[C@H]3CCc4ccccc43)cnc2c1-c1cccc(CS(C)(=O)=O)c1` [Example 400], the EC50 is less than 10 µg/mL.

In turn, `CC(C)c1c(C(=O)N[C@H]2CCOc3ccccc32)cnc2c(-c3cc(Cl)cc(Cl)c3)c(C(F)(F)F)nn12` [Example 196] yielded an EC50 of less than 10 µg/mL.

The compound `CC(C)c1c(C(=O)N[C@H]2CCc3ccccc32)cnc2c(-c3cc(Cl)cc(Cl)c3)c(S(C)(=O)=O)nn12` [Example 229] registered an EC50 of less than 1 µg/mL.

In turn, `Cc1nn2c(Cc3ccc(F)cc3)c(C(=O)N[C@H]3CCc4ccccc43)cnc2c1-c1c(F)cccc1Cl` [Example 227] registered an EC50 of less than 10 µg/mL.

Consider `Cc1nn2c(C(C)C)c(C(=O)N[C@H]3CCc4ccccc43)cnc2c1-c1cccc(OC(F)(F)F)c1` [Example 309], for which the EC50 is less than 10 µg/mL.

As for `Cc1nn2c(C(C)C)c(C(=O)N[C@H]3CCCc4ccccc43)cnc2c1-c1cccc(N(C)C)c1` [Example 361], the EC50 was less than 1 µg/mL.

Take `CC(C)c1c(C(=O)N[C@H]2CCc3ccccc32)cnc2c(-c3ccccc3F)c(C(F)(F)F)nn12` [Example 158]: the EC50 was less than 10 µg/mL.

Compound `CNc1ccc(-c2c(C)nn3c(C(C)C)c(C(=O)N[C@H]4CCc5ccccc54)cnc23)cc1` [Example 341] had an EC50 of less than 10 µg/mL.

Turning to `Cc1nn2c(C(C)C)c(C(=O)N[C@H]3CCOc4ccccc43)cnc2c1-c1ccc2c(c1)OC(F)(F)O2` [Example 251], the EC50 is less than 0.1 µg/mL.

As for `CC(C)c1c(C(=O)N[C@H]2CCOc3ccccc32)cnc2c(-c3c(F)cc(F)cc3F)c(C(F)(F)F)nn12` [Example 140], the EC50 is less than 0.1 µg/mL.

`Cc1nn2c(C(C)C)c(C(=O)N[C@H]3CCc4ccccc43)cnc2c1-c1ccc(OC(F)(F)F)cc1` [Example 331] returned an EC50 of less than 10 µg/mL.

In turn, `CSc1nn2c(C(C)C)c(C(=O)N[C@H]3CCc4ccccc43)cnc2c1-c1cc(Cl)cc(Cl)c1` [Example 203] yielded an EC50 of less than 10 µg/mL.

As to `CC(C)c1c(C(=O)N[C@H]2CCc3ccccc32)cnc2c(-c3cccc(OC(F)(F)F)c3)c(C(F)(F)F)nn12` [Example 149], the EC50 was less than 10 µg/mL.

`Cc1nn2c(C(C)C)c(C(=O)N[C@H]3CCCc4ccccc43)cnc2c1-c1ccccc1F` [Example 94] yielded an EC50 of less than 0.1 µg/mL.

Test system in another series: not listed separately
The series is described as follows: log P by HPLC on reversed phase columns (Method L0; [a] acidic, [b] neutral range).
Settings: not given
Take `Cc1nn2c(C3CC3)c(C(=O)N[C@H]3CCc4ccccc43)cnc2c1-c1cc(Cl)cc(C(F)(F)F)c1` [Example 425]: the chromatographic logP came to 5.34.

`Cc1nn2c(C(C)C)c(C(=O)N[C@H]3CCCc4ccccc43)cnc2c1-c1ccc(Cl)cc1Cl` [Example 182] returned a chromatographic logP of 5.59.

Compound `Cc1nn2c(C(C)C)c(C(=O)N[C@H]3CCc4ccccc43)cnc2c1-c1cnn(C(C)C)c1` [Example 398] came in with a chromatographic logP of 3.77.

`Cc1nn2c(C(C)C)c(C(=O)N[C@H]3CCCc4ccccc43)cnc2c1-c1cncc(Cl)c1` [Example 362] gave a chromatographic logP of 4.52.

For `CC(=O)Nc1cc(-c2c(C)nn3c(C4CC4)c(C(=O)N[C@H]4CCOc5ccccc54)cnc23)ccn1` [Example 528], the chromatographic logP was 1.69.

As to `Cc1nn2c(C(C)C)c(C(=O)N[C@H]3CCOc4ccccc43)cnc2c1-c1ccc2c(c1)OCO2` [Example 239], the chromatographic logP worked out at 4.08.

`Cc1nn2c(C(C)C)c(C(=O)N[C@H]3CCc4ccccc43)cnc2c1-c1cccc(CS(C)(=O)=O)c1` [Example 400]: the chromatographic logP came out at 3.39.

Compound `CC(C)c1c(C(=O)N[C@H]2CCOc3ccccc32)cnc2c(-c3cc(Cl)cc(Cl)c3)c(C(F)(F)F)nn12` [Example 196] displayed a chromatographic logP of 5.84.

Turning to `CC(C)c1c(C(=O)N[C@H]2CCc3ccccc32)cnc2c(-c3cc(Cl)cc(Cl)c3)c(S(C)(=O)=O)nn12` [Example 229], the chromatographic logP was 4.35.

For the compound `Cc1nn2c(Cc3ccc(F)cc3)c(C(=O)N[C@H]3CCc4ccccc43)cnc2c1-c1c(F)cccc1Cl` [Example 227], the chromatographic logP stood at 4.92.

Regarding `Cc1nn2c(C(C)C)c(C(=O)N[C@H]3CCc4ccccc43)cnc2c1-c1cccc(OC(F)(F)F)c1` [Example 309], the chromatographic logP was determined as 5.48.

`Cc1nn2c(C(C)C)c(C(=O)N[C@H]3CCCc4ccccc43)cnc2c1-c1cccc(N(C)C)c1` [Example 361] came in with a chromatographic logP of 4.32.

For the compound `CC(C)c1c(C(=O)N[C@H]2CCc3ccccc32)cnc2c(-c3ccccc3F)c(C(F)(F)F)nn12` [Example 158], the chromatographic logP is 4.76.

For the compound `CNc1ccc(-c2c(C)nn3c(C(C)C)c(C(=O)N[C@H]4CCc5ccccc54)cnc23)cc1` [Example 341], the chromatographic logP amounted to 3.32.

The compound `Cc1nn2c(C(C)C)c(C(=O)N[C@H]3CCOc4ccccc43)cnc2c1-c1ccc2c(c1)OC(F)(F)O2` [Example 251] gave a chromatographic logP of 5.03.

On to `CC(C)c1c(C(=O)N[C@H]2CCOc3ccccc32)cnc2c(-c3c(F)cc(F)cc3F)c(C(F)(F)F)nn12` [Example 140], for which the chromatographic logP amounted to 4.77.

`Cc1nn2c(C(C)C)c(C(=O)N[C@H]3CCc4ccccc43)cnc2c1-c1ccc(OC(F)(F)F)cc1` [Example 331] displayed a chromatographic logP of 5.41.

As to `CSc1nn2c(C(C)C)c(C(=O)N[C@H]3CCc4ccccc43)cnc2c1-c1cc(Cl)cc(Cl)c1` [Example 203], the chromatographic logP was 6.67.

`CC(C)c1c(C(=O)N[C@H]2CCc3ccccc32)cnc2c(-c3cccc(OC(F)(F)F)c3)c(C(F)(F)F)nn12` [Example 149]: the chromatographic logP is 5.55.

`Cc1nn2c(C(C)C)c(C(=O)N[C@H]3CCCc4ccccc43)cnc2c1-c1ccccc1F` [Example 94] registered a chromatographic logP of 4.72.

A further series concerns the target C. elegans Slo-1a (Caenorhabditis elegans, UniProt Q95V25). The series is described as follows: In vitro assay 1: C. elegans Slo-1a, action at a recombinant C. elegans CHO cell line (membrane potential measurement).
Settings: not given
As to `Cc1nn2c(C3CC3)c(C(=O)N[C@H]3CCc4ccccc43)cnc2c1-c1cc(Cl)cc(C(F)(F)F)c1` [Example 425], the EC50 is 0.0794 µM.

For `Cc1nn2c(C(C)C)c(C(=O)N[C@H]3CCCc4ccccc43)cnc2c1-c1ccc(Cl)cc1Cl` [Example 182], the EC50 is 0.0126 µM.

In the case of `Cc1nn2c(C(C)C)c(C(=O)N[C@H]3CCc4ccccc43)cnc2c1-c1cnn(C(C)C)c1` [Example 398], the EC50 was 0.02 µM.

For `Cc1nn2c(C(C)C)c(C(=O)N[C@H]3CCCc4ccccc43)cnc2c1-c1cncc(Cl)c1` [Example 362], the EC50 is 0.1 µM.

As for `CC(=O)Nc1cc(-c2c(C)nn3c(C4CC4)c(C(=O)N[C@H]4CCOc5ccccc54)cnc23)ccn1` [Example 528], the EC50 was 1.26 µM.

As for `Cc1nn2c(C(C)C)c(C(=O)N[C@H]3CCOc4ccccc43)cnc2c1-c1ccc2c(c1)OCO2` [Example 239], the EC50 was 0.0316 µM.

With `Cc1nn2c(C(C)C)c(C(=O)N[C@H]3CCc4ccccc43)cnc2c1-c1cccc(CS(C)(=O)=O)c1` [Example 400], the EC50 was 0.126 µM.

Turning to `CC(C)c1c(C(=O)N[C@H]2CCOc3ccccc32)cnc2c(-c3cc(Cl)cc(Cl)c3)c(C(F)(F)F)nn12` [Example 196], the EC50 was 0.0501 µM.

As to `CC(C)c1c(C(=O)N[C@H]2CCc3ccccc32)cnc2c(-c3cc(Cl)cc(Cl)c3)c(S(C)(=O)=O)nn12` [Example 229], the EC50 was 0.0631 µM.

For `Cc1nn2c(Cc3ccc(F)cc3)c(C(=O)N[C@H]3CCc4ccccc43)cnc2c1-c1c(F)cccc1Cl` [Example 227], the concentration giving a half-maximal response (EC50) was 2 µM.

As for `Cc1nn2c(C(C)C)c(C(=O)N[C@H]3CCc4ccccc43)cnc2c1-c1cccc(OC(F)(F)F)c1` [Example 309], the EC50 is 0.0316 µM.

For the compound `Cc1nn2c(C(C)C)c(C(=O)N[C@H]3CCCc4ccccc43)cnc2c1-c1cccc(N(C)C)c1` [Example 361], the half-maximal effective concentration (EC50) is 0.0158 µM.

In the case of `CC(C)c1c(C(=O)N[C@H]2CCc3ccccc32)cnc2c(-c3ccccc3F)c(C(F)(F)F)nn12` [Example 158], the EC50 was 0.158 µM.

With `CNc1ccc(-c2c(C)nn3c(C(C)C)c(C(=O)N[C@H]4CCc5ccccc54)cnc23)cc1` [Example 341], the EC50 is 0.2 µM.

As to `Cc1nn2c(C(C)C)c(C(=O)N[C@H]3CCOc4ccccc43)cnc2c1-c1ccc2c(c1)OC(F)(F)O2` [Example 251], the EC50 is 0.00316 µM.

With `CC(C)c1c(C(=O)N[C@H]2CCOc3ccccc32)cnc2c(-c3c(F)cc(F)cc3F)c(C(F)(F)F)nn12` [Example 140], the EC50 was 0.0794 µM.

Regarding `Cc1nn2c(C(C)C)c(C(=O)N[C@H]3CCc4ccccc43)cnc2c1-c1ccc(OC(F)(F)F)cc1` [Example 331], the EC50 was 0.251 µM.

On to `CSc1nn2c(C(C)C)c(C(=O)N[C@H]3CCc4ccccc43)cnc2c1-c1cc(Cl)cc(Cl)c1` [Example 203], for which the EC50 is 0.2 µM.

Turning to `CC(C)c1c(C(=O)N[C@H]2CCc3ccccc32)cnc2c(-c3cccc(OC(F)(F)F)c3)c(C(F)(F)F)nn12` [Example 149], the EC50 was 0.0631 µM.

Take `Cc1nn2c(C(C)C)c(C(=O)N[C@H]3CCCc4ccccc43)cnc2c1-c1ccccc1F` [Example 94]: the EC50 was 0.0158 µM.
